Assay results from US9120756B2, “Substituted phenylureas and phenylamides as vanilloid receptor ligands” (Gruenenthal GmbH, priority 2009, dated 2015).
One block for each compound: values may come before it.

Experiments:
Format in all cases: cell-based
[1] = biological target: rat-species vanilloid receptor 1 (VR1/TRPV1) (Rattus norvegicus (Rat), UniProt O35433); assay: FLIPR Ca2+ influx assay on rat dorsal root ganglia cells, capsaicin stimulus (method I); conditions: for Ki: capsaicin (Cap)
Method: (§1) The agonistic or antagonistic effect of the substances to be tested on the rat-species vanilloid receptor 1 (VR1/TRPV1) can be determined using the following assay. In this assay, the influx of Ca^2+ through the receptor channel is quantified with the aid of a Ca^2+-sensitive dye (type Fluo-4, Molecular Probes Europe BV, Leiden, the Netherlands) in a fluorescent imaging plate reader (FLIPR, Molecular Devices, Sunnyvale, USA).
Complete medium: 50 ml HAMS F12 nutrient mixture (Gibco Invitrogen GmbH, Karlsruhe, Germany) with
10% by volume of FCS (foetal calf serum, Gibco Invitrogen GmbH, Karlsruhe, Germany, heat-inactivated);
2 mM L-glutamine (Sigma, Munich, Germany);
1% by weight of AA solution (antibiotic/antimyotic solution, PAA, Pasching, Austria) and 25 ng/ml NGF medium (2.5 S, Gibco Invitrogen GmbH, Karlsruhe, Germany)
Cell culture plate: Poly-D-lysine-coated, black 96-well plates having a clear base (96-well black/clear plate, BD Biosciences, Heidelberg, Germany) are additionally coated with laminin (Gibco Invitrogen GmbH, Karlsruhe, Germany), the laminin being diluted with PBS (Ca—Mg-free PBS, Gibco Invitrogen GmbH, Karlsruhe, Germany) to a concentration of 100 μg/ml. Aliquots having a laminin concentration of 100 μg/ml are removed and stored at −20° C. The aliquots are diluted with PBS in a ratio of 1:10 to 10 μg/ml of laminin and respectively 50 μL of the solution are pipetted into a recess in the cell culture plate. The cell culture plates are incubated for at least two hours at 37° C., the excess solution is removed by suction and the recesses are each washed twice with PBS. The coated cell culture plates are stored with excess PBS which is not removed until just before the feeding of the cells.
The vertebral column is removed from decapitated rats and placed immediately into cold HBSS buffer (Hank's buffered saline solution, Gibco Invitrogen GmbH, Karlsruhe, Germany), i.e. buffer located in an ice bath, mixed with 1% by volume (percent by volume) of an AA solution (antibiotic/antimyotic solution, PAA, Pasching, Austria). The vertebral column is cut longitudinally and removed together with fasciae from the vertebral canal. Subsequently, the dorsal root ganglia (DRG) are removed and again stored in cold HBSS buffer mixed with 1% by volume of an AA solution. The DRG, from which all blood remnants and spinal nerves have been removed, are transferred in each case to 500 μL of cold type 2 collagenase (PAA, Pasching, Austria) and incubated for 35 minutes at 37° C. After the addition of 2.5% by volume of trypsin (PAA, Pasching, Austria), incubation is continued for 10 minutes at 37° C. After complete incubation, the enzyme solution is carefully pipetted off and 500 μL of complete medium are added to each of the remaining DRG. […] The contents of each Falcon tube are respectively filtered through a 70 μm Falcon filter element and centrifuged for 10 minutes at 1,200 rpm and RT. The resulting pellet is respectively taken up in 250 μL of complete medium and the cell count is determined.
The number of cells in the suspension is set to 3×10^5 per ml and 150 μL of this suspension are in each case introduced into a recess in the cell culture plates coated as described hereinbefore. […] Subsequently, the cells are loaded with 2 μM of Fluo-4 and 0.01% by volume of Pluronic F127 (Molecular Probes Europe BV, Leiden, the Netherlands) in HBSS buffer (Hank's buffered saline solution, Gibco Invitrogen GmbH, Karlsruhe, Germany) for 30 min at 37° C., washed 3 times with HBSS buffer and after further incubation for 15 minutes at RT used for Ca^2+ measurement in a FLIPR assay. The Ca^2+-dependent fluorescence is in this case measured before and after the addition of substances (λex=488 nm, λem=540 nm). Quantification is carried out by measuring the highest fluorescence intensity (FC, fluorescence counts) over time.
The FLIPR protocol consists of 2 substance additions.

[2] = biological target: T1, hVR1 (Homo sapiens (Human), UniProt Q8NER1); assay: FLIPR assay human VR1, 45° C. stimulus; set-up: key to IC50 (human being) 45° C. column: result in words (AG): AG=agonist; pAG=partial agonist; NE=no effect; conditions: for IC50: read-out: IC50 (human being) [nM], 45° C.
Source text: as §1, with “the” for “the rat-species”, “(VR1)” for “(VR1/TRPV1)”, “can also” for “can”, “the” for “the receptor”
Chinese hamster ovary cells (CHO K1 cells, European Collection of Cell Cultures (ECACC) United Kingdom) are stably transfected with the VR1 gene. For functional testing, these cells are plated out on poly-D-lysine-coated black 96-well plates having a clear base (BD Biosciences, Heidelberg, Germany) at a density of 25,000 cells/well. The cells are incubated overnight at 37° C. and 5% CO2 in a culture medium (Ham's F12 nutrient mixture, 10% by volume of FCS (foetal calf serum), 18 μg/ml of L-proline). The next day the cells are incubated with Fluo-4 (Fluo-4 2 μM, 0.01% by volume of Pluronic F127, Molecular Probes in HBSS (Hank's buffered saline solution), Gibco Invitrogen GmbH, Karlsruhe, Germany) for 30 minutes at 37° C. Subsequently, the plates are washed three times with HBSS buffer and after further incubation for 15 minutes at RT used for Ca^2+ measurement in a FLIPR assay. The Ca^2+-dependent fluorescence is measured before and after the addition of the substances to be tested (λex wavelength=488 nm, λem=540 nm). Quantification is carried out by measuring the highest fluorescence intensity (FC, fluorescence counts) over time.
The FLIPR protocol consists of 2 substance additions. […]
Desensitising agonists and antagonists led to suppression of the Ca^2+ influx.
Ki values for the test substances were obtained by conversion by means of the Cheng-Prusoff equation (Cheng, Prusoff; Biochem. Pharmacol. 22, 3099-3108, 1973).

[3] = biological target: T1, hVR1; assay: FLIPR Ca2+ influx assay on CHO K1 cells transfected with the VR1 gene, capsaicin stimulus (method II); set-up: key to Ki (human being) Cap: result in words (NE / AG): AG=agonist; pAG=partial agonist; NE=no effect; conditions: for Ki: capsaicin (Cap), read-out: Ki (human being) [nM] Cap
[4] = biological target: T1, hVR1; assay: FLIPR assay hVR1, after pH stimulus; set-up: key to IC50 (human being) hVR1 pH: result in words (NE / AG): AG=agonist; pAG=partial agonist; NE=no effect; conditions: for IC50: read-out: IC50 (human being) hVR1 [nM], pH; for inhibition at 10 µM: read-out: IC50 (human being) hVR1 pH: inhibition (as a percentage) @ 10 μM, inhibition determined at 10 μM
Method: (§2) In this assay, the influx of Ca^2+ through the channel is quantified with the aid of a Ca^2+-sensitive dye (type Fluo-4, Molecular Probes Europe BV, Leiden, the Netherlands) in a fluorescent imaging plate reader (FLIPR, Molecular Devices, Sunnyvale, USA). Chinese hamster ovary cells (CHO K1 cells, European Collection of Cell Cultures (ECACC) United Kingdom) are stably transfected with the VR1 gene. For functional testing, these cells are plated out on poly-D-lysine-coated black 96-well plates having a clear base (BD Biosciences, Heidelberg, Germany) at a density of 25,000 cells/well. […] Subsequently, the plates are washed three times with HBSS buffer and after further incubation for 15 minutes at RT used for Ca^2+ measurement in a FLIPR assay. […] Quantification is carried out by measuring the highest fluorescence intensity (FC, fluorescence counts) over time. The FLIPR protocol consists of 2 substance additions. […] Desensitising agonists and antagonists led to suppression of the Ca^2+ influx. […] Ki values for the test substances were obtained by conversion by means of the Cheng-Prusoff equation (Cheng, Prusoff; Biochem. Pharmacol. 22, 3099-3108, 1973).

[5] = biological target: T1, hVR1; assay: FLIPR assay human VR1, NADA (N-arachidonoyl dopamine) stimulus; set-up: key: AG=agonist; pAG=partial agonist; NE=no effect
Method: as §2

Sequence of rat-species vanilloid receptor 1 (VR1/TRPV1) (O35433 whole entry): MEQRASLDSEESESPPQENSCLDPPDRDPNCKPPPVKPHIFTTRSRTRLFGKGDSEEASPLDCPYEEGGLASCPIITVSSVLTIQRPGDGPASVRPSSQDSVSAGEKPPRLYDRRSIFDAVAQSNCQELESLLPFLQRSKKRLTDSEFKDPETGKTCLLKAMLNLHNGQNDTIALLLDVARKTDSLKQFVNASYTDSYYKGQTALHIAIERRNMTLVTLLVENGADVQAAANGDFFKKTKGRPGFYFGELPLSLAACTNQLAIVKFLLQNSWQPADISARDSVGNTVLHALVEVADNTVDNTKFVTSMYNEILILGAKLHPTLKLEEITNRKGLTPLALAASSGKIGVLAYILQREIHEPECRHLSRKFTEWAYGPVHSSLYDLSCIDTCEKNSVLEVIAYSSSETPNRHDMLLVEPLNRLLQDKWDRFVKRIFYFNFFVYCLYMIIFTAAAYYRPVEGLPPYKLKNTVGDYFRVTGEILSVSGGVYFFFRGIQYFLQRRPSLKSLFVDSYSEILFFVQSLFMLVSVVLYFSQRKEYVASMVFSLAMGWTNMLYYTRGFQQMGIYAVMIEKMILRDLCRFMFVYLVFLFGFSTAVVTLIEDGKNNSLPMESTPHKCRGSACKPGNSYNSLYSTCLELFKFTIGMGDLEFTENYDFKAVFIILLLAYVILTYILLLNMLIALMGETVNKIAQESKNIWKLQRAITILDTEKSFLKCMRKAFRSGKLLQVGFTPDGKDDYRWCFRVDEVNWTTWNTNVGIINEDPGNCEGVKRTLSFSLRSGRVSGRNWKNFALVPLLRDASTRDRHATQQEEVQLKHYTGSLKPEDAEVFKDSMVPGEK
T1 sequence (Q8NER1 whole entry): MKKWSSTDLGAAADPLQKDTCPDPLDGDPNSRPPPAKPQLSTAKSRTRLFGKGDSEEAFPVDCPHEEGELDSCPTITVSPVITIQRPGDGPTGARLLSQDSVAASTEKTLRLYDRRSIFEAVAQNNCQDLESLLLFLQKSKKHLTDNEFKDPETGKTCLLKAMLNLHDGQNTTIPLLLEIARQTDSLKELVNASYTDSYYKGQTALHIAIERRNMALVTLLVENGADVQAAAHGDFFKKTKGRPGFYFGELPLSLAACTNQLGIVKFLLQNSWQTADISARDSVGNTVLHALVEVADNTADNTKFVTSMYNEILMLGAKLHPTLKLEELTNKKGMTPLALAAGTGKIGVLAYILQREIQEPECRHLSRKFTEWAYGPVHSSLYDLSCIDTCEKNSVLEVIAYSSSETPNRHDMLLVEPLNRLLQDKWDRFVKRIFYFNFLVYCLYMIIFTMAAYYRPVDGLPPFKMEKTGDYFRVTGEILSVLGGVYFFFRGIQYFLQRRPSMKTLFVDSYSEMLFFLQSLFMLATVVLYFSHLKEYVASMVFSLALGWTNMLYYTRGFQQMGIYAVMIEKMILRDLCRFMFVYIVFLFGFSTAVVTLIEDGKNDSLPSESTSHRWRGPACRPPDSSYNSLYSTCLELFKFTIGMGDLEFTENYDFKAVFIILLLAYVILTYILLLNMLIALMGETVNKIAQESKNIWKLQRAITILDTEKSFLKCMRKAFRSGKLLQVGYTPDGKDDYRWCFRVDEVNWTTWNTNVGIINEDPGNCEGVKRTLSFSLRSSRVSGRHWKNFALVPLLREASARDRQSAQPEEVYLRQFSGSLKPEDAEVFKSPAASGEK

- Ki [1]: 0.4 nM
- IC50 [2]: 16.1 nM
- Ki [3]: 0.3 nM
- IC50 [4]: 47.1 nM
Compound: C[C@H](C(=O)NCc1cc(C(F)(F)F)nn1-c1ccc(Cl)cc1)c1ccc(NS(C)(=O)=O)c(F)c1 [Example 23, (S)-N-((1-(4-chlorophenyl)-3-(trifluoromethyl)-1H-pyrazol-5-yl)methyl)-2-(3-fluoro-4-(methylsulphonamido)phenyl)propanamide]

- Ki [1]: 1.2 nM
- IC50 [2]: 27 nM
- Ki [3]: 0.3 nM
- IC50 [4]: 179 nM
Compound: CC(C(=O)NCc1cc(C(F)(F)F)nn1-c1ccc(Cl)cc1)c1ccc(NS(C)(=O)=O)c(F)c1 (stereo not shown) [Example 21, N-((1-(4-chlorophenyl)-3-(trifluoromethyl)-1H-pyrazol-5-yl)methyl)-2-(3-fluoro-4-(methylsulphonamido)phenyl)propanamide]

- Ki (human being) NADA column: result in words (AG) [5]: AG
- IC50 (human being) 45° C. column: result in words (AG) [2]: AG
- Ki (human being) Cap: result in words (NE / AG) ([3]; capsaicin): AG
- IC50 (human being) hVR1 pH: result in words (NE / AG) [4]: AG
Compound: CC(C(=O)NCc1cc(C(C)(C)C)nn1-c1cccc(Cl)c1)c1ccc(S(=O)(=O)N(C)C)c(F)c1 (stereo not shown) [Example 49, N-((3-tert-butyl-1-(3-chlorophenyl)-1H-pyrazol-5-yl)methyl)-2-(4-(N,N-dimethylsulphamoyl)-3-fluorophenyl)propanamide]

- inhibition at 0.625 µM ([2]; inhibition determined at 0.625 μM, read-out: IC50 (human being) 45° C. column: inhibition (as a percentage) @ 0.625 μM): 35%
- Ki [3]: 0.3 nM
- IC50 (human being) hVR1 pH: result in words (NE / AG) [4]: NE
Compound: CC(C(=O)NCc1cc(C(C)(C)C)nn1-c1cccc(Cl)c1)c1ccc(NS(C)(=O)=O)c(F)c1 (stereo not shown) [Example 16, N-((3-tert-butyl-1-(3-chlorophenyl)-1H-pyrazol-5-yl)methyl)-2-(3-fluoro-4-(methylsulphonamido)phenyl)propanamide]

- inhibition at 1 µM ([1]; read-out: Ki (rat) Cap column: inhibition (as a percentage) @ 1 μM, capsaicin, inhibition determined at 1 μM): 76%
- IC50 [2]: 282 nM
- Ki [3]: 50.2 nM
- inhibition at 10 µM [4]: 36%
Compound: CCCCCCn1nc(C(C)(C)C)cc1CNC(=O)C(C)c1ccc(NS(C)(=O)=O)c(F)c1 (stereo not shown) [Example 5, N-((3-tert-butyl-1-hexyl-1H-pyrazol-5-yl)methyl)-2-(3-fluoro-4-(methylsulphonamido)phenyl)propanamide]

- Ki [1]: 25.5 nM
- inhibition at 2.5 µM ([2]; inhibition determined at 2.5 μM, read-out: IC50 (human being) 45° C. column: inhibition (as a percentage) @ 2.5 μM): 28%
- Ki [3]: 13.6 nM
Compound: CC(C(=O)NCc1cc(C(F)(F)F)nn1-c1cccc(Cl)c1)c1ccc(C(F)(F)F)c(F)c1 (stereo not shown) [Example 141, N-((1-(3-chlorophenyl)-3-(trifluoromethyl)-1H-pyrazol-5-yl)methyl)-2-(3-fluoro-4-(trifluoromethyl)phenyl)propanamide]

- inhibition at 2 µM ([2]; read-out: IC50 (human being) 45° C. column: inhibition (as a percentage) @ 2 μM, inhibition determined at 2 μM): 34%
- Ki [3]: 1.2 nM
- inhibition at 10 µM [4]: 42%
Compound: CC(C(=O)NCc1cc(C(C)(C)C)nn1-c1cccc(Cl)c1)c1cc(F)c(NS(C)(=O)=O)c(F)c1 (stereo not shown) [Example 29, N-((3-tert-butyl-1-(3-chlorophenyl)-1H-pyrazol-5-yl)methyl)-2-(3,5-difluoro-4-(methylsulphonamido)phenyl)propanamide]
